Patent publication US11214594B2, “Antimicrobial peptide having synergistic antibacterial effect with antibiotics on multidrug resistant bacteria, and use thereof” (priority 2016, dated 2022)
In brackets after ≈: the same amount, converted by molar mass. Read-outs that look alike come from different tables or passages of the source. Where a SMILES comes first, the peptide text is derived from it.

How the values were obtained:
E. coli [1] = test: MIC of antibiotic during combined treatment with antimicrobial peptide; assay type: cell-based, Escherichia coli; conditions: E. coli
Procedure: (§1) Thereafter, the MIC value of each mixed solution was determined by diluting the antibiotic solution with the MH medium, adding 50 μl of the diluted solution to each well, and performing an experiment even under a reversed condition.

A. baumannii [2] = test: microbe, parasite or virus in culture; assay type: cell-based, Acinetobacter baumannii; conditions: for Antibiotic MIC, compound alone: no peptide; for MIC: Acinetobacter baumannii, read-out: Minimal inhibitory concentration MIC
Procedure: (§2) For the antibacterial activity, a minimal inhibitory concentration (MIC) of a peptide in which fungus bodies were not split in an MH medium with sufficient nutrients was measured.
(§3) Specifically, the strains described in the following [Table 2] were purchased and diluted with an MH medium such that the number of bacteria was 2×10^6 colony-forming units (CFUs), 100 μl of each of the diluted strains was aliquoted into a 96-well microtiter plate, and then 100 μl of a peptide solution diluted with the MH medium (solution diluted stepwise at 2: 1) was added to each well.

MDRAB 12035 = test: microbe, parasite or virus in culture; assay type: cell-based, Acinetobacter baumannii; conditions: for Antibiotic MIC, compound alone: MDRAB 12035, no peptide
Procedure: as §2, §3

A. baumannii [3] = test: MIC of antibiotic during combined treatment with antimicrobial peptide; assay type: cell-based, Acinetobacter baumannii; conditions: A. baumannii
Procedure: as §1

B. subtilis = test: microbe, parasite or virus in culture; assay type: cell-based, Bacillus subtilis; conditions: Bacillus subtilis, read-out: Minimal inhibitory concentration MIC
Procedure: as §2, §3

S. epidermidis = test: microbe, parasite or virus in culture; assay type: cell-based, Staphylococcus epidermidis; conditions: Staphylococcus epidermidis, read-out: Minimal inhibitory concentration MIC
Procedure: as §2, §3

S. typhimurium = test: microbe, parasite or virus in culture; assay type: cell-based, Salmonella typhimurium; conditions: Salmonella enterica, read-out: Minimal inhibitory concentration MIC
Procedure: as §2, §3

P. aeruginosa = test: microbe, parasite or virus in culture; assay type: cell-based, Pseudomonas aeruginosa; conditions: Pseudomonas aeruginosa, read-out: Minimal inhibitory concentration MIC
Procedure: as §2, §3

MDREC 1229 = test: microbe, parasite or virus in culture; assay type: cell-based, Escherichia coli; conditions: for MIC: Escherichia coli, read-out: Minimal inhibitory concentration MIC; for Antibiotic MIC, compound alone: no peptide
Procedure: as §2, §3

E. coli [4] = test: microbe, parasite or virus in culture; assay type: cell-based, Escherichia coli
Procedure: as §2, §3

S. aureus = test: microbe, parasite or virus in culture; assay type: cell-based, Staphylococcus aureus; conditions: Staphylococcus aureus, read-out: Minimal inhibitory concentration MIC
Procedure: as §2, §3

A. baumannii [5] = test: MIC of antimicrobial peptide during combined treatment with antibiotic; assay type: cell-based, Acinetobacter baumannii
Procedure: Specifically, the strains described in [Table 2] were prepared and diluted with an MH medium such that the number of bacteria was 2×10^6 colony-forming units (CFUs) per 1 ml, 100 μl of the diluted strains was each aliquoted into a 96-well microtiter plate, and then 50 μl of a peptide solution diluted with the MH medium from the MIC value (solution diluted stepwise at 2: 1) was added to each well. Thereafter, the MIC value of each mixed solution was determined by diluting the antibiotic solution with the MH medium, adding 50 μl of the diluted solution to each well, and performing an experiment even under a reversed condition.

[6] = with PapMA-1 at 16 μg/ml (1/4 of peptide MIC)
[7] = with PapMA-2 at 16 μg/ml (1/4 of peptide MIC)
[8] = with Papiliocin 1 μg/ml (Conc./MIC 1/8)
[9] = with Papiliocin 2 μg/ml (Conc./MIC 1/4)
[10] = with Papiliocin 4 μg/ml (Conc./MIC 1/2)
[11] = with Papiliocin 8 μg/ml (Conc./MIC 1)
[12] = E. coli, compound alone (no peptide)

Structure (SMILES) | MIC of antibiotic in mixture as fraction of the MIC of the antibiotic alone (E. coli [1]; with PapMA-1 at 16 μg/ml) | MIC value of antibiotic mixed with peptide (E. coli [1]; [6]) | MIC value of antibiotic mixed with peptide (E. coli [1]; [7]) | MIC of antibiotic in mixture as fraction of the MIC of the antibiotic alone (E. coli [1]; with PapMA-7 at 16 μg/ml) | MIC Concentration of antibiotic (E. coli [1]; [8]) | MIC Concentration of antibiotic (E. coli [1]; [9]) | MIC Concentration of antibiotic (E. coli [1]; [10]) | MIC Concentration of antibiotic (E. coli [1]; [11]) | Antibiotic MIC, compound alone (A. baumannii [2]; A. baumannii) | Antibiotic MIC, compound alone (MDRAB 12035) | MIC of antibiotic administered in combination with peptide (A. baumannii [3]; with PapMA-1 at 8 μg/ml) | MIC of antibiotic in combination as fraction of the MIC of the antibiotic alone (A. baumannii [3]; with PapMA-1 at 8 μg/ml) | MIC Concentration of antibiotic (A. baumannii [3]; [8]) | MIC Concentration of antibiotic (A. baumannii [3]; [9]) | MIC Concentration of antibiotic (A. baumannii [3]; [10]) | MIC Concentration of antibiotic (A. baumannii [3]; [11]) | MIC (B. subtilis; B. subtilis, agent alone) | MIC (S. epidermidis; S. epidermidis, agent alone) | MIC (S. typhimurium; S. typhimurium, agent alone) | MIC of antibiotic administered in combination with peptide (A. baumannii [3]; with PapMA-7 at 8 μg/ml) | other results
CC[C@H]1OC(=O)[C@H](C)[C@@H](O[C@H]2C[C@@](C)(OC)[C@@H](O)[C@H](C)O2)[C@H](C)[C@@H](O[C@@H]2O[C@H](C)C[C@H](N(C)C)[C@H]2O)[C@](C)(O)C[C@@H](C)C(=O)[C@H](C)[C@@H](O)[C@]1(C)O [Erythromycin, erythromycin, reference compound] | 1/64 | 2 µg/mL | 0.5 µg/mL | 1/512 | 64 µg/mL | 64 µg/mL | 64 µg/mL | 0 µg/mL | 32 µg/mL | 32 µg/mL | 0.5 µg/mL | 1/64 | 32 µg/mL | 16 µg/mL | 16 µg/mL | 0 µg/mL | 0.25 µg/mL (≈ 0.341 µM) | 1 µg/mL (≈ 1.36 µM) | 64 µg/mL (≈ 87.2 µM) |  | MIC (A. baumannii [2]; A. baumannii, agent alone): 32 µg/mL (≈ 43.6 µM)
CC(=O)NC[C@H]1CN(c2ccc(N3CCOCC3)c(F)c2)C(=O)O1 [Linezolid, linezolid, reference compound] | 1/16 | 16 µg/mL | 8 µg/mL | 1/256 | 128 µg/mL | 128 µg/mL | 128 µg/mL | 0 µg/mL | 256 µg/mL | 512 µg/mL | 8 µg/mL | 1/32 | 128 µg/mL | 64 µg/mL | 64 µg/mL | 0 µg/mL | 1 µg/mL (≈ 2.96 µM) | 1 µg/mL (≈ 2.96 µM) | 256 µg/mL (≈ 759 µM) | 1 µg/mL | MIC (P. aeruginosa; P. aeruginosa, agent alone): > 1020 µg/mL; MIC of antibiotic in mixture as fraction of the MIC of the antibiotic alone (E. coli [1]; with PapMA-2 at 16 μg/ml): 1/32; MIC value of antibiotic mixed with peptide (E. coli [1]; with PapMA-7 at 16 μg/ml (1/2 of peptide MIC)): 1 µg/mL; MIC of antibiotic in combination as fraction of the MIC of the antibiotic alone (A. baumannii [3]; with PapMA-7 at 8 μg/ml): 1/256; MIC (MDREC 1229; MDREC 1229, agent alone): 512 µg/mL (≈ 1520 µM); Antibiotic MIC, compound alone (MDREC 1229; MDREC 1229): 512 µg/mL; Antibiotic MIC, Linezolid (E. coli [4]; [12]): 256 µg/mL
CN[C@H](CC(C)C)C(=O)N[C@H]1C(=O)N[C@@H](CC(N)=O)C(=O)N[C@H]2C(=O)N[C@H]3C(=O)N[C@H](C(=O)N[C@H](C(=O)O)c4cc(O)cc(O)c4-c4cc3ccc4O)[C@H](O)c3ccc(c(Cl)c3)Oc3cc2cc(c3O[C@@H]2O[C@H](CO)[C@@H](O)[C@H](O)[C@H]2O[C@H]2C[C@](C)(N)[C@H](O)[C@H](C)O2)Oc2ccc(cc2Cl)[C@H]1O [Vancomycin, vancomycin, reference compound] |  |  |  |  | 512 µg/mL | 256 µg/mL | 256 µg/mL | 0 µg/mL | 1024 µg/mL | >1024 µg/mL |  |  | 512 µg/mL | 256 µg/mL | 256 µg/mL | 0 µg/mL |  |  |  | 2 µg/mL | MIC (P. aeruginosa): > 1020 µg/mL; MIC (A. baumannii [2]): 1020 µg/mL (≈ 707 µM); MIC (MDRAB 12035; Acinetobacter baumannii, read-out: Minimal inhibitory concentration MIC): > 1020 µg/mL; MIC of antibiotic in combination as fraction of the MIC of the antibiotic alone (A. baumannii [3]; with PapMA-7 at 8 μg/ml): 1/512; MIC (B. subtilis): 1 µg/mL (≈ 0.69 µM); MIC (MDREC 1229): > 1020 µg/mL; Antibiotic MIC, compound alone (MDREC 1229; MDREC 1229): >1024 µg/mL; Antibiotic MIC, Vancomycin (E. coli [4]; [12]): 1024 µg/mL; MIC (E. coli [4]; Escherichia coli, 16 h, read-out: Minimal inhibitory concentration MIC): 1020 µg/mL (≈ 707 µM); MIC (S. aureus): 1 µg/mL (≈ 0.69 µM); MIC (S. epidermidis): 1 µg/mL (≈ 0.69 µM); MIC (S. typhimurium; TYPHIMURIUM): 512 µg/mL (≈ 353 µM)
CC[C@H](C)[C@H](NC(=O)[C@H](CCCCN)NC(=O)[C@H](Cc1c[nH]c2ccccc12)NC(=O)[C@@H](N)CCCNC(=N)N)C(=O)N[C@@H](Cc1ccccc1)C(=O)N[C@@H](CCCCN)C(=O)N[C@@H](CCCCN)C(=O)N[C@H](C(=O)N1CCC[C@H]1C(=O)N[C@@H](CCCCN)C(=O)N[C@@H](CC(C)C)C(=O)N[C@@H](CC(C)C)C(=O)N[C@@H](Cc1c[nH]cn1)C(=O)N[C@@H](CCC(=O)O)C(=O)N[C@@H](Cc1ccccc1)C(=O)N[C@@H](CCCCN)C(=O)N[C@@H](CCCCN)C(=O)N[C@@H](Cc1ccccc1)C(N)=O)[C@@H](C)CC [Pap-MA-12] (H-RWKIFKKIPKLLHEFKKF-NH2; N-terminus assumed) |  |  |  |  |  |  |  |  |  |  |  |  |  |  |  |  |  |  |  |  | Peptide MIC, peptide alone (A. baumannii [2]): 8 µg/mL; Peptide MIC during treatment with antibiotic (A. baumannii [5]; erythromycin 4 μg/ml (Conc./MIC 1/8)): 4 µg/mL; Peptide MIC during treatment with antibiotic (A. baumannii [5]; erythromycin 8 μg/ml (Conc./MIC 1/4)): 2 µg/mL; Peptide MIC during treatment with antibiotic (A. baumannii [5]; erythromycin 16 μg/ml (Conc./MIC 1/2)): 1 µg/mL; Peptide MIC during treatment with antibiotic (A. baumannii [5]; erythromycin 32 μg/ml (Conc./MIC 1)): 0 µg/mL; Peptide MIC during treatment with antibiotic (A. baumannii [5]; linezolid 32 μg/ml (Conc./MIC 1/8)): 2 µg/mL; Peptide MIC during treatment with antibiotic (A. baumannii [5]; linezolid 64 μg/ml (Conc./MIC 1/4)): 2 µg/mL; Peptide MIC during treatment with antibiotic (A. baumannii [5]; linezolid […] (Conc./MIC 1)): 0 µg/mL; Peptide MIC during treatment with antibiotic (A. baumannii [5]; linezolid […] (Conc./MIC 1/2)): 1 µg/mL; Peptide MIC during treatment with antibiotic (A. baumannii [5]; vancomycin 512 μg/ml (Conc./MIC 1/2)): 0.25 µg/mL; Peptide MIC during treatment with antibiotic (A. baumannii [5]; vancomycin 1024 μg/ml (Conc./MIC 1)): 0 µg/mL; Peptide MIC during treatment with antibiotic (A. baumannii [5]; vancomycin […] (Conc./MIC 1/4)): 0.25 µg/mL; Peptide MIC during treatment with antibiotic (A. baumannii [5]; vancomycin […] (Conc./MIC 1/8)): 2 µg/mL
